Measured values published in patent publication US12037339B2, “Substituted imidazoles as GLP-1 receptor agonists” (Eccogene Inc., priority 2020, dated 2024).

Biological target: (Homo sapiens, UniProt P43220)
Assay: h-GLP-1 activity assay (cAMP HTRF, HEK293 cells with stable expression of human GLP-1)
Type: cell-based
Details: relative EC50, 10 nM human GLP-1 set as 100% response, 30 min at 37° C.
Description: Human GLP-1 agonizing activity was detected in HEK293 cells with stable expression of human GLP-1 by Cisbio cAMP Gs dynamic kit (Catalog #62AM4PEC) according to manufacturer's protocol. Briefly, cells were collected and resuspended in assay buffer containing 0.1% BSA and 0.5 mM of IBMX at concentration to 2.5×10^5 cells/mL. Two μL 5× compound solution and 8 μL cell suspension were added to each well of low-volume 384 white assay plate. After 30 min incubation at 37° C., 5 μL cAMP-d2 working solution and 5 μL anti-cAMP antibody-cryptate were added to each well, and incubate at room temperature for 1 hr. Series dilution of cAMP was used as standard. Human GLP-1 (7-37) was used as positive control and 10 nM human GLP-1 was set as 100% response. HTRF signals were read at 665 and 615 nm with EnVision plate reader and calculated cAMP concentration by interpolation to the standard curve. The EC50 value of the tested compounds was calculated by fitting the dose response curve using a 4-parameter non-linear regression routine and relative EC50 was presented in Table 29.

(Homo sapiens, UniProt P43220), sequence (P43220 24-463): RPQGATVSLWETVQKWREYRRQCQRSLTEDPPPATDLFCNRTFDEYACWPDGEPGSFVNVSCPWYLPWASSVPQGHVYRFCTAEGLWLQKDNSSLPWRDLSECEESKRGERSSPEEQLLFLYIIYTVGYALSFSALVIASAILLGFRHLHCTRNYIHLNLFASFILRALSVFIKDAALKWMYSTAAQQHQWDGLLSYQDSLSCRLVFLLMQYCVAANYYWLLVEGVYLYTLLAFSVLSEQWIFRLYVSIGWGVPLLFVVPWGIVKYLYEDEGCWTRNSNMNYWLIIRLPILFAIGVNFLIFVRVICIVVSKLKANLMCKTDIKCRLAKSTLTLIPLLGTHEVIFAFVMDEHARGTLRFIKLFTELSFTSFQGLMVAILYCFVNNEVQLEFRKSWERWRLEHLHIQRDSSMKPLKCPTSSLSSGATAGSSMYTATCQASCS

| EC50 [nM] | Compound |
| --- | --- |
| > 100 | C[C@H]1c2c(nn([C@@H](C)c3ccc(F)cc3)c2-n2ccn(-c3ccc4c(cnn4C)c3F)c2=O)CCN1C(=O)c1cc2cc([C@H]3CCOC(C)(C)C3)ccc2n1C1(c2noc(=O)[nH]2)CC1 (single isomer, unassigned) [Compound 39] |
| < 20 | C[C@H]1c2c(nn([C@@H](C)c3ccc(F)cc3)c2-n2ccn(-c3ccc4c(cnn4C)c3F)c2=O)CCN1C(=O)c1cc2cc([C@@H]3CCOC(C)(C)C3)ccc2n1C1(c2noc(=O)[nH]2)CC1 (single isomer, unassigned) [Compound 40] |
| > 100 | C[C@H](c1ccc(F)cc1)n1nc2c(c1-n1ccn(-c3ccc4c(cnn4C)c3F)c1=O)[C@H](C)N(C(=O)c1cc3cc([C@H]4CCOC(C)(C)C4)ccc3n1C1(c3noc(=O)[nH]3)CC1)CC2 (single isomer, unassigned) [Compound 41] |
| > 100 | C[C@H]1c2c(nn(C3CCC(F)(F)CC3)c2-n2ccn(-c3ccc4c(cnn4C)c3F)c2=O)CCN1C(=O)c1cc2cc([C@H]3CCOC(C)(C)C3)ccc2n1C1(c2noc(=O)[nH]2)CC1 (single isomer, unassigned) [Compound 43] |
| < 20 | C[C@H]1c2c(nn(C3CCC(F)(F)CC3)c2-n2ccn(-c3ccc4c(cnn4C)c3F)c2=O)CCN1C(=O)c1cc2cc([C@@H]3CCOC(C)(C)C3)ccc2n1C1(c2noc(=O)[nH]2)CC1 (single isomer, unassigned) [Compound 44] |
| > 100 | Cc1cc(-n2nc3c(c2-n2ccn(-c4ccc5c(cnn5C)c4F)c2=O)[C@H](C)N(C(=O)c2cc4cc([C@H]5CCOC(C)(C)C5)ccc4n2Cc2cnc(O)s2)CC3)cc(C)c1F (single isomer, unassigned) [Compound 45] |
| 20 to 100 | Cc1cc(-n2nc3c(c2-n2ccn(-c4ccc5c(cnn5C)c4F)c2=O)[C@H](C)N(C(=O)c2cc4cc([C@@H]5CCOC(C)(C)C5)ccc4n2Cc2cnc(O)s2)CC3)cc(C)c1F (single isomer, unassigned) [Compound 46] |
| < 20 | C[C@@H]1c2c(-n3ccn(-c4ccc5c(cnn5C)c4F)c3=O)c(-c3ccc(F)c(Cl)c3)nn2CCN1C(=O)c1cc2cc([C@@H]3CCOC(C)(C)C3)ccc2n1C1(c2noc(=O)[nH]2)CC1 (single isomer, unassigned) [Compound 49] |
| > 100 | C[C@H]1c2c(-n3ccn(-c4ccc5c(cnn5C)c4F)c3=O)c(-c3ccc(F)c(Cl)c3)nn2CCN1C(=O)c1cc2cc([C@@H]3CCOC(C)(C)C3)ccc2n1C1(c2noc(=O)[nH]2)CC1 (single isomer, unassigned) [Compound 50] |
| < 20 | C[C@@H]1c2c(-n3ccn(-c4ccc5c(cnn5C)c4F)c3=O)c(-c3cc(Cl)c(F)c(Cl)c3)nn2CCN1C(=O)c1cc2cc([C@@H]3CCOC(C)(C)C3)ccc2n1C1(c2noc(=O)[nH]2)CC1 (single isomer, unassigned) [Compound 51] |
| > 100 | C[C@H]1c2c(-n3ccn(-c4ccc5c(cnn5C)c4F)c3=O)c(-c3cc(Cl)c(F)c(Cl)c3)nn2CCN1C(=O)c1cc2cc([C@@H]3CCOC(C)(C)C3)ccc2n1C1(c2noc(=O)[nH]2)CC1 (single isomer, unassigned) [Compound 52] |
| > 100 | COCC12CCC(n3ccn(-c4c(-c5ccc(F)cc5)nn5c4[C@H](C)N(C(=O)c4cc6cc(C7CCOCC7)ccc6n4Cc4noc(=O)[nH]4)CC5)c3=O)(CC1)CC2 (single isomer, unassigned) [Compound 53] |
| < 20 | C[C@H]1c2c(nn(C34CC(C3)C4)c2-n2ccn(-c3ccc4c(cnn4C)c3F)c2=O)CCN1C(=O)c1cc2cc([C@H]3CCOC(C)(C)C3)ccc2n1C1(c2noc(=O)[nH]2)CC1 (single isomer, unassigned) [Compound 60] |
| 20 to 100 | C[C@H]1c2c(nn(C34CC(C3)C4)c2-n2ccn(-c3ccc4c(cnn4C)c3F)c2=O)CCN1C(=O)c1cc2cc([C@@H]3CCOC(C)(C)C3)ccc2n1C1(c2noc(=O)[nH]2)CC1 (single isomer, unassigned) [Compound 61] |
| 20 to 100 | COCC12CCC(n3ccn(-c4c(-c5ccc(F)cc5)nn5c4[C@H](C)N(C(=O)c4cc6cc([C@@H]7CCOC(C)(C)C7)ccc6n4[C@@]4(c6noc(=O)[nH]6)C[C@@H]4C)CC5)c3=O)(CC1)CC2 (single isomer, unassigned) [Compound 62] |
| > 100 | COCC12CCC(n3ccn(-c4c(-c5ccc(F)cc5)nn5c4[C@H](C)N(C(=O)c4cc6cc([C@H]7CCOC(C)(C)C7)ccc6n4[C@@]4(c6noc(=O)[nH]6)C[C@@H]4C)CC5)c3=O)(CC1)CC2 (single isomer, unassigned) [Compound 63] |

Second part, the compound before the results:

| Compound | EC50 [nM] |
| --- | --- |
| C[C@H]1c2c(-n3ccn(-c4ccc5c(cnn5C)c4F)c3=O)c(-c3ccc(F)cc3)nn2CCN1C(=O)c1cn2cc([C@@H]3CCOC(C)(C)C3)ccc2c1C1(c2noc(=O)[nH]2)CC1 (single isomer, unassigned) [Compound 14] | < 20 |
| Cc1cc(-n2nc3c(c2-n2ccn(-c4ccn5cncc5c4)c2=O)[C@H](C)N(C(=O)c2cn4cc([C@H]5CCOC(C)(C)C5)ccc4c2C2(c4noc(=O)[nH]4)CC2)CC3)cc(C)c1F (single isomer, unassigned) [Compound 16] | 20 to 100 |
| Cc1cc(-n2nc3c(c2-n2ccn(-c4ccn5c(C)ncc5c4)c2=O)[C@H](C)N(C(=O)c2cn4cc([C@@H]5CCOC(C)(C)C5)ccc4c2C2(c4noc(=O)[nH]4)CC2)CC3)cc(C)c1F (single isomer, unassigned) [Compound 17] | < 20 |
| Cc1cc(-n2nc3c(c2-n2ccn(-c4ccn5c(C)ncc5c4)c2=O)[C@H](C)N(C(=O)c2cn4cc([C@H]5CCOC(C)(C)C5)ccc4c2C2(c4noc(=O)[nH]4)CC2)CC3)cc(C)c1F (single isomer, unassigned) [Compound 18] | < 20 |
| Cc1cc(-n2nc3c(c2-n2ccn(-c4ccc5c(cnn5C)c4F)c2=O)[C@H](C)N(C(=O)c2cn4cc([C@H]5CCOC(C)(C)C5)ccc4c2C2(c4noc(=O)[nH]4)CC2)CC3)cc(C)c1F (single isomer, unassigned) [Compound 20] | 20 to 100 |
| Cc1cc(-n2nc3c(c2-n2ccn(-c4ccc5c(cnn5C)c4F)c2=O)[C@H](C)N(C(=O)c2cn4cc([C@@H]5CCOC(C)(C)C5)ccc4c2Cc2noc(=O)[nH]2)CC3)cc(C)c1F (single isomer, unassigned) [Compound 21] | < 20 |
| Cc1cc(-n2nc3c(c2-n2ccn(-c4ccc5c(cnn5C)c4F)c2=O)[C@H](C)N(C(=O)c2cn4cc([C@H]5CCOC(C)(C)C5)ccc4c2Cc2noc(=O)[nH]2)CC3)cc(C)c1F (single isomer, unassigned) [Compound 22] | 20 to 100 |
| Cc1cc(-c2nn3c(c2-n2ccn(-c4ccc5c(cnn5C)c4F)c2=O)[C@@H](C)N(C(=O)c2cc4cc([C@@H]5CCOC(C)(C)C5)ccc4n2C2(c4noc(=O)[nH]4)CC2)CC3)cc(C)c1F (single isomer, unassigned) [Compound 24] | < 20 |
| Cc1cc(-c2nn3c(c2-n2ccn(-c4ccc5c(cnn5C)c4F)c2=O)[C@H](C)N(C(=O)c2cc4cc([C@@H]5CCOC(C)(C)C5)ccc4n2C2(c4noc(=O)[nH]4)CC2)CC3)cc(C)c1F (single isomer, unassigned) [Compound 25] | > 100 |
| Cc1cc(-c2nn3c(c2-n2ccn(-c4ccc5c(cnn5C)c4F)c2=O)[C@H](C)N(C(=O)c2cc4cc([C@@H]5CCOC(C)(C)C5)ccc4n2C2(c4noc(=O)[nH]4)CC2)CC3)ccc1F (single isomer, unassigned) [Compound 26] | < 20 |
| Cc1cc(-c2nn3c(c2-n2ccn(-c4ccc5c(cnn5C)c4F)c2=O)[C@@H](C)N(C(=O)c2cc4cc([C@@H]5CCOC(C)(C)C5)ccc4n2C2(c4noc(=O)[nH]4)CC2)CC3)ccc1F (single isomer, unassigned) [Compound 27] | > 100 |
| COc1ccc(-c2nn3c(c2-n2ccn(-c4ccc5c(cnn5C)c4F)c2=O)C(C)N(C(=O)c2cc4cc([C@@H]5CCOC(C)(C)C5)ccc4n2C2(c4noc(=O)[nH]4)CC2)CC3)cc1 (single isomer, unassigned) [Compound 28] | 20 to 100 |
| COCC12CCC(n3ccn(-c4c(-c5ccc(F)cc5)nn5c4[C@H](C)N(C(=O)c4cc6cc([C@@H]7CCOC(C)(C)C7)ccc6n4C4(c6noc(=O)[nH]6)CC4)CC5)c3=O)(CC1)CC2 (single isomer, unassigned) [Compound 29] | 20 to 100 |
| C[C@H]1c2c(-n3ccn(-c4ccc5c(cnn5C)c4F)c3=O)c(-c3ccc(F)cc3)nn2CCN1C(=O)c1cc2cc([C@H]3CCOC(C)(C)C3)ccc2n1C1(c2noc(=O)[nH]2)CC1 (single isomer, unassigned) [Compound 31] | > 100 |
| C[C@@H]1c2c(-n3ccn(-c4ccc5c(cnn5C)c4F)c3=O)c(-c3ccc(F)cc3)nn2CCN1C(=O)c1cc2cc([C@H]3CCOC(C)(C)C3)ccc2n1C1(c2noc(=O)[nH]2)CC1 (single isomer, unassigned) [Compound 32] | > 100 |
| C[C@H]1c2c(-n3ccn(-c4ccc5c(cnn5C)c4F)c3=O)c(-c3ccc(F)cc3)nn2CCN1C(=O)c1cc2cc([C@@H]3CCOC(C)(C)C3)ccc2n1C1(c2noc(=O)[nH]2)CC1 (single isomer, unassigned) [Compound 33] | < 20 |
| C[C@@H]1c2c(-n3ccn(-c4ccc5c(cnn5C)c4F)c3=O)c(-c3ccc(F)cc3)nn2CCN1C(=O)c1cc2cc([C@@H]3CCOC(C)(C)C3)ccc2n1C1(c2noc(=O)[nH]2)CC1 (single isomer, unassigned) [Compound 34] | > 100 |
| C[C@H](c1ccc(F)cc1)n1nc2c(c1-n1ccn(-c3ccc4c(cnn4C)c3F)c1=O)[C@H](C)N(C(=O)c1cc3cc([C@@H]4CCOC(C)(C)C4)ccc3n1C1(c3noc(=O)[nH]3)CC1)CC2 (single isomer, unassigned) [Compound 38] | < 20 |
